Data published in ChEMBL document CHEMBL4706721, “Novel Pyridazinones as TRPC5 Inhibitors for Treating Kidney Diseases” (ACS Med Chem Lett, 2021).

Target: T1, Short transient receptor potential channel 5 (Homo sapiens, UniProt Q9UL62)
T1 sequence (Q9UL62 whole entry): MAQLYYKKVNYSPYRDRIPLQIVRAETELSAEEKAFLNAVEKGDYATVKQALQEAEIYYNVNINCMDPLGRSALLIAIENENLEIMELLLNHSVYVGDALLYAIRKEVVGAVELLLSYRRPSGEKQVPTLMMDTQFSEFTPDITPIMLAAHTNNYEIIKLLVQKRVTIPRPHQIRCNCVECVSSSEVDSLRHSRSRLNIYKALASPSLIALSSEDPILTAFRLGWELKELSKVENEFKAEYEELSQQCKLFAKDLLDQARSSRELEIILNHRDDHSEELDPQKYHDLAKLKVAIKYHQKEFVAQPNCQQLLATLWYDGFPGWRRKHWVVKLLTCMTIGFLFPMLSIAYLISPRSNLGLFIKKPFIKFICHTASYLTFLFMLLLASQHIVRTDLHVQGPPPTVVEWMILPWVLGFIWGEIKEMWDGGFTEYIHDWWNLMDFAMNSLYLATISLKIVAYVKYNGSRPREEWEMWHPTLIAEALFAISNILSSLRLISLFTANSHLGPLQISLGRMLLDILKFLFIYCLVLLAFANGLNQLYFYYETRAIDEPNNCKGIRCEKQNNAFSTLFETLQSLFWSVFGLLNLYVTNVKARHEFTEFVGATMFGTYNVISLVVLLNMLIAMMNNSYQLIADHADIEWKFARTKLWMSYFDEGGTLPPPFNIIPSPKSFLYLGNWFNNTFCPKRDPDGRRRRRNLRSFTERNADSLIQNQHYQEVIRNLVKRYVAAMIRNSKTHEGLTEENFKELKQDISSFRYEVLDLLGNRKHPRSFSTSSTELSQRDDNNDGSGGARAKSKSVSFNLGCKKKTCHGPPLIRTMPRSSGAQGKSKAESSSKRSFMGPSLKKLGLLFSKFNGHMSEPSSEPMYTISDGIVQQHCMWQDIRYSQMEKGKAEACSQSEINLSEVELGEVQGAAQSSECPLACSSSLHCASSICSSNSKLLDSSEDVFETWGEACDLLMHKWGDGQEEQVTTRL
Assay: Inhibition of human TRPC5 expressed in HEK293-T-REx cells assessed as decrease in riluzole-induced calcium response preincubated for 5 min followed by riluzole stimulation by Fluo-4 AM dye based FLIPR assay
Assay type: cell-based

Structure (SMILES)	IC50
O=c1[nH]ncc(N2CCc3c(ncnc3Oc3ccc(F)cc3Cl)C2)c1Cl	≤ 50 nM
CCc1c(F)cccc1Oc1ncnc2c1CCN(c1cn[nH]c(=O)c1Cl)C2	≤ 50 nM
O=c1[nH]ncc(N2CCc3c(ncnc3Oc3ccccc3C(F)(F)F)C2)c1Cl	≤ 50 nM
CN(c1cnccc1C(F)(F)F)c1ncnc2c1CCN(c1cn[nH]c(=O)c1Cl)C2	≤ 50 nM
O=c1[nH]ncc(N2CCc3c(ncnc3N(CCO)c3ccc(F)cc3C(F)(F)F)C2)c1Cl	≤ 50 nM
